Laboratory results reported in patent publication US20250034167A1, “HETEROCYCLIC COMPOUNDS AND METHODS OF USE” (AMGEN INC., priority 2021, published 2025).
Where two headings read alike, the source gives them in different places.

Tests used:
[1] = tested on: Phosphorylation of ERK1/2 in AsPC-1 cells; assay: Phospho-ERK1/2 MSD Assay; type: cell-based
Protocol: Sixteen hours prior to compound treatment, AsPC-1 cells were seeded in 96-well cell culture plates at a density of 25,000 cells/well and incubated at 37° C., 5% CO2. A compound dose-response titration was diluted in growth media, added to appropriate wells of a cell culture plate, and then incubated at 37° C., 5% CO2 for 2 hours.

[2] = molecular target: His-tagged KRAS G12D protein (Homo sapiens, UniProt P01116, G12D); assay: biochemical
Chain of His-tagged KRAS G12D protein (P01116 1-188 isoform P01116-2 G12D): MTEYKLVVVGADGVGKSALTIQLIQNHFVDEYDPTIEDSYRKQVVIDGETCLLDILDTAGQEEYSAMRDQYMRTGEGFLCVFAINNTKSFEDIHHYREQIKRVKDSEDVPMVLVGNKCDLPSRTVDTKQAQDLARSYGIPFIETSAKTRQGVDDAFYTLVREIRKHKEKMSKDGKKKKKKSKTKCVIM
Protocol: The plate was incubated for 30 minutes at room temperature. Biotinylated KRPep-2d substrate (Amgen) was diluted to nM in Assay Buffer and 2 μL was added to all wells and incubated for 1 hour at room temperature. Detection Reagent (0.4 nM LANCE Eu-W1024 Anti-6×His (Perkin Elmer AD0401), 5 nM streptavidin-d2 (Cisbio 610SADLA)) was prepared in Assay Buffer, then 4 µL was added to the plate and incubated for 1 hour at room temperature.

[3] = Homo sapiens, ASPC1, 2 h, read-out: 2 h p-ERK (AsPC-1 cells), IC50, AsPC-1 cells, 2 h compound treatment
[4] = read-out: 2 h p-ERK (AsPC-1 cells), IC50, AsPC-1 cells, 2 h compound treatment

Compound	IC50 [1, 3]	IC50 [2]	IC50 [1, 4]
CCc1c(F)ccc2cc(O)cc(-c3ncc4c(N5CCCCC[C@@H]5C)nc(OC[C@@]56CCCN5C[C@H](F)C6)nc4c3F)c12 [Example 81, 5-Ethyl-6-fluoro-4-(8-fluoro-2-(((2R,7aS)-2-fluorotetrahydro-1H-pyrrolizin-7a(5H)-yl)methoxy)-4-((S)-2-methylazepan-1-yl)pyrido[4,3-d]pyrimidin-7-yl)naphthalen-2-ol]	1160 nM	19 nM	
CCc1c(F)ccc2cc(O)cc(-c3ncc4c(N5C[C@H](N)CC(F)(F)C5)nc(OC[C@@]56CCCN5C[C@H](F)C6)nc4c3F)c12 [Example 140, 4-(4-((R)-5-Amino-3,3-difluoropiperidin-1-yl)-8-fluoro-2-(((2R,7aS)-2-fluorotetrahydro-1H-pyrrolizin-7a(5H)-yl)methoxy)pyrido[4,3-d]pyrimidin-7-yl)-5-ethyl-6-fluoronaphthalen-2-ol]	81 nM	3 nM	
CCc1c(F)ccc2cc(O)cc(-c3ncc4c(N5CC6CC(C#N)C(C6)C5)nc(OC[C@@]56CCCN5C[C@H](F)C6)nc4c3F)c12 (single isomer, unassigned) [Example 145]		8 nM	593 nM
CCc1c(F)ccc2cc(O)cc(-c3ncc4c(N5C[C@H](C)C[C@@H](O)C5)nc(OC[C@@]56CCCN5C[C@H](F)C6)nc4c3F)c12 (relative stereo) [Example 160, rel-(3R,5R)-1-(7-(8-Ethyl-7-fluoro-3-hydroxy-naphthalen-1-yl)-8-fluoro-2-(((2R,7aS)-2-fluorotetrahydro-1H-pyrrolizin-7a(5H)-yl)methoxy)pyrido[4,3-d]pyrimidin-4-yl)-5-methylpiperidin-3-ol]	414 nM	3 nM	
CCc1c(F)ccc2cc(O)cc(-c3ncc4c(N5CCCC(N)CC5)nc(OC[C@@]56CCCN5C[C@H](F)C6)nc4c3F)c12 (stereo partly drawn) [Example 143, 4-(4-(4-Aminoazepan-1-yl)-8-fluoro-2-(((2R,7aS)-2-fluorotetrahydro-1H-pyrrolizin-7a(5H)-yl)methoxy)pyrido[4,3-d]pyrimidin-7-yl)-5-ethyl-6-fluoronaphthalen-2-ol]	> 10000 nM	62 nM	
CCc1c(F)ccc2cc(O)cc(-c3ncc4c(N5CCCCC(S(N)(=O)=O)C5)nc(OC[C@@]56CCCN5C[C@H](F)C6)nc4c3F)c12 (stereo partly drawn) [Example 158, 1-(7-(8-Ethyl-7-fluoro-3-hydroxy-naphthalen-1-yl)-8-fluoro-2-(((2R,7aS)-2-fluorotetrahydro-1H-pyrrolizin-7a(5H)-yl)methoxy)pyrido[4,3-d]pyrimidin-4-yl)azepane-3-sulfonamide]	1420 nM	2 nM	
CCc1c(F)ccc2cc(O)cc(-c3ncc4c(N5CCCCC(C)(O)C5)nc(OC[C@@]56CCCN5C[C@H](F)C6)nc4c3F)c12 (single isomer, unassigned) [Example 137]		2 nM	40 nM
CCc1c(F)ccc2cc(O)cc(-c3ncc4c(N5CC(S(N)(=O)=O)C5)nc(OC[C@@]56CCCN5C[C@H](F)C6)nc4c3F)c12 [Example 87, 1-(7-(8-Ethyl-7-fluoro-3-hydroxynaphthalen-1-yl)-8-fluoro-2-(((2R,7aS)-2-fluorotetrahydro-1H-pyrrolizin-7a(5H)-yl)methoxy)pyrido[4,3-d]pyrimidin-4-yl)azetidine-3-sulfonamide]	> 10000 nM	63 nM	
CCc1c(F)ccc2cc(O)cc(-c3ncc4c(N5CCCC(C(=O)NC)C5)nc(OC[C@@]56CCCN5C[C@H](F)C6)nc4c3F)c12 (stereo partly drawn) [Example 89, 1-(7-(8-Ethyl-7-fluoro-3-hydroxynaphthalen-1-yl)-8-fluoro-2-(((2R,7aS)-2-fluorotetrahydro-1H-pyrrolizin-7a(5H)-yl)methoxy)pyrido[4,3-d]pyrimidin-4-yl)-N-methylpiperidine-3-carboxamide]	> 3000 nM	9 nM	
CCc1c(F)ccc2cc(O)cc(-c3ncc4c(N5CC(CC(N)=O)C5)nc(OC[C@@]56CCCN5C[C@H](F)C6)nc4c3F)c12 [Example 8, 2-(1-(7-(8-Ethyl-7-fluoro-3-hydroxynaphthalen-1-yl)-8-fluoro-2-(((2R,7aS)-2-fluorotetrahydro-1H-pyrrolizin-7a(5H)-yl)methoxy)pyrido[4,3-d]pyrimidin-4-yl)azetidin-3-yl)acetamide]	> 10000 nM	82 nM	
CCc1c(F)ccc2cc(O)cc(-c3ncc4c(N5CCC(=O)C(F)(F)CC5)nc(OC[C@@]56CCCN5C[C@H](F)C6)nc4c3F)c12 [Example 150, 1-(7-(8-Ethyl-7-fluoro-3-hydroxy-naphthalen-1-yl)-8-fluoro-2-(((2R,7aS)-2-fluorotetrahydro-1H-pyrrolizin-7a(5H)-yl)methoxy)pyrido[4,3-d]pyrimidin-4-yl)-5,5-difluoroazepan-4-one]	1430 nM	3 nM	
CCc1c(F)ccc2cc(O)cc(-c3ncc4c(N5C[C@H](O)C[C@@H](O)C5)nc(OC[C@@]56CCCN5C[C@H](F)C6)nc4c3F)c12 [Example 102, (3R,5R)-1-(7-(8-Ethyl-7-fluoro-3-hydroxynaphthalen-1-yl)-8-fluoro-2-(((2R,7aS)-2-fluorotetrahydro-1H-pyrrolizin-7a(5H)-yl)methoxy)pyrido[4,3-d]pyrimidin-4-yl)piperidine-3,5-diol]	1900 nM	2 nM	
CCc1c(F)ccc2cc(O)cc(-c3ncc4c(N5CC6CCC(C6)C5)nc(OC[C@@]56CCCN5C[C@H](F)C6)nc4c3F)c12 [Example 105, 4-(4-(3-Azabicyclo[3.2.1]octan-3-yl)-8-fluoro-2-(((2R,7aS)-2-fluorotetrahydro-1H-pyrrolizin-7a(5H)-yl)methoxy)pyrido[4,3-d]pyrimidin-7-yl)-5-ethyl-6-fluoronaphthalen-2-ol]	939 nM	9 nM	
C#Cc1cccc2cc(O)cc(-c3ncc4c(N5CC6CC(O)C(C6)C5)nc(OC[C@@]56CCCN5C[C@H](F)C6)nc4c3F)c12 (single isomer, unassigned) [Example 31]	32 nM	2 nM	
CCc1c(F)ccc2cc(O)cc(-c3ncc4c(N5CCC[C@](C)(CO)C5)nc(OC[C@@]56CCCN5C[C@H](F)C6)nc4c3F)c12 [Example 66, 5-Ethyl-6-fluoro-4-(8-fluoro-2-(((2R,7aS)-2-fluorotetrahydro-1H-pyrrolizin-7a(5H)-yl)methoxy)-4-((S)-3-(hydroxymethyl)-3-methylpiperidin-1-yl)pyrido[4,3-d]pyrimidin-7-yl)naphthalen-2-ol]	754 nM	18 nM	
CCc1c(F)ccc2cc(O)cc(-c3ncc4c(N5CCC(S(N)(=O)=O)C5)nc(OC[C@@]56CCCN5C[C@H](F)C6)nc4c3F)c12 (stereo partly drawn) [Example 86, 1-(7-(8-Ethyl-7-fluoro-3-hydroxynaphthalen-1-yl)-8-fluoro-2-(((2R,7aS)-2-fluorotetrahydro-1H-pyrrolizin-7a(5H)-yl)methoxy)pyrido[4,3-d]pyrimidin-4-yl)pyrrolidine-3-sulfonamide]	> 10000 nM	64 nM	
C[C@@]1(O)CCCN(c2nc(OC[C@@]34CCCN3C[C@H](F)C4)nc3c(F)c(-c4cc(O)cc5cccc(C6CC6)c45)ncc23)C1 [Example 167, (R)-1-(7-(8-Cyclopropyl-3-hydroxynaphthalen-1-yl)-8-fluoro-2-(((2R,7aS)-2-fluorotetrahydro-1H-pyrrolizin-7a(5H)-yl)methoxy)pyrido[4,3-d]pyrimidin-4-yl)-3-methylpiperidin-3-ol]	12 nM	2 nM	
CCc1c(F)ccc2cc(O)cc(-c3ncc4c(N5CC6CC(O)C6C5)nc(OC[C@@]56CCCN5C[C@H](F)C6)nc4c3F)c12 (stereo partly drawn) [Example 9, 3-(7-(8-Ethyl-7-fluoro-3-hydroxynaphthalen-1-yl)-8-fluoro-2-(((2R,7aS)-2-fluorotetrahydro-1H-pyrrolizin-7a(5H)-yl)methoxy)pyrido[4,3-d]pyrimidin-4-yl)-3-azabicyclo[3.2.0]heptan-6-ol]	1340 nM	5 nM	
CCc1c(F)ccc2cc(O)cc(-c3ncc4c(N5CCCC(O)CC5)nc(OC[C@@]56CCCN5C[C@H](F)C6)nc4c3F)c12 (stereo partly drawn) [Example 141, 1-(7-(8-Ethyl-7-fluoro-3-hydroxynaphthalen-1-yl)-8-fluoro-2-(((2R,7aS)-2-fluorotetrahydro-1H-pyrrolizin-7a(5H)-yl)methoxy)pyrido[4,3-d]pyrimidin-4-yl)azepan-4-ol]	198 nM	4 nM	
CCc1c(F)ccc2cc(O)cc(-c3ncc4c(N5CC6CCC(C5)C(C#N)C6)nc(OC[C@@]56CCCN5C[C@H](F)C6)nc4c3F)c12 (stereo partly drawn) [Example 147, 3-(7-(8-Ethyl-7-fluoro-3-hydroxynaphthalen-1-yl)-8-fluoro-2-(((2R,7aS)-2-fluorotetrahydro-1H-pyrrolizin-7a(5H)-yl)methoxy)pyrido[4,3-d]pyrimidin-4-yl)-3-azabicyclo[3.2.2]nonane-6-carbonitrile]	714 nM	15 nM	
CCc1c(F)ccc2cc(O)cc(-c3ncc4c(N5CCCC(C#N)CC5)nc(OC[C@@]56CCCN5C[C@H](F)C6)nc4c3F)c12 (single isomer, unassigned) [Example 54]		3 nM	116 nM
CCc1c(F)ccc2cc(O)cc(-c3ncc4c(N5CCCCC(C)(O)C5)nc(OC[C@@]56CCCN5C[C@H](F)C6)nc4c3F)c12 (single isomer, unassigned) [Example 136]		10 nM	614 nM
CCc1c(F)ccc2cc(O)cc(-c3ncc4c(N5CCCC(S(C)(=O)=O)C5)nc(OC[C@@]56CCCN5C[C@H](F)C6)nc4c3F)c12 (stereo partly drawn) [Example 84, 5-Ethyl-6-fluoro-4-(8-fluoro-2-(((2R,7aS)-2-fluorotetrahydro-1H-pyrrolizin-7a(5H)-yl)methoxy)-4-(3-(methylsulfonyl)piperidin-1-yl)pyrido[4,3-d]pyrimidin-7-yl)naphthalen-2-ol]	1290 nM	5 nM	
